Reference: article PMC8050080, “Cannabis sativa terpenes are cannabimimetic and selectively enhance cannabinoid activity” (Scientific Reports, 2021)

Columns and labels:
[1] = system: male and female CD-1 mice; test: Tail flick thermal latency test (antinociception); type: in vivo; settings: for tail flick antinociception (efficacy in words): terpenes 50–200 mg/kg i.p. (β-Caryophyllene 100 mg/kg), WIN55,212-2 up to 10 mg/kg, over 2 h
Experimental: Antinociception was tested using the tail flick thermal latency test. Mice were baselined by gently restraining the animal and lowering the distal portion of the tail into a water bath set to 52 °C or 47 °C where stated, and the latency to flick the tail recorded with a stopwatch, with a 10 s cutoff. Mice were then injected with compounds intraperitoneally (i.p.). Thermal latency was then assessed over a time course of 2 h, or at a single time-point as noted. […] For assays using terpene/WIN55,212-2 co-treatment, WIN55,212-2 was co-administered with terpene in the same solution.

[2] = system: male and female CD-1 mice; test: Hypothermia (core temperature, rectal thermometer); type: in vivo; settings: for effect of rimonabant pretreatment on hypothermia: 10 mg/kg rimonabant, 200 mg/kg terpene or 5.6 mg/kg WIN55,212-2, Fig. 3, S4C; for hypothermia vs baseline: 30 min after i.p. 200 mg/kg terpene or 5.6 mg/kg WIN55,212-2, Fig. S2A
Experimental: Changes in core temperature were assessed using a lubricated rectal thermometer placed 1.0 cm into the mouse rectum. Temperature was assessed before treatment and 30 min post-treatment.

[3] = system: male and female CD-1 mice; test: Catalepsy ring test; type: in vivo; settings: for effect of istradefyllene pretreatment on catalepsy response: 10 mg/kg istradefyllene; for effect of istradefyllene pretreatment on catalepsy response / effect of rimonabant pretreatment on catalepsy response: 200 mg/kg terpene, Fig. 4; for effect of rimonabant pretreatment on catalepsy response: 10 mg/kg rimonabant; for catalepsy of terpene combined with WIN55,212-2: 200 mg/kg terpene + 5.6 mg/kg WIN55,212-2, Fig. 4; for catalepsy vs baseline: 15 min after i.p. 200 mg/kg terpene or 5.6 mg/kg WIN55,212-2, Fig. S2B
Experimental: Potential induction of catalepsy was assessed using the ring test as described. Mice were baselined, injected with compound, and then assessed with the ring test at 15 min post-injection. Data was represented as the percentage (%) of time in a “cataleptic” immobile state over the 5 min observation period.

[4] = system: WT CHO cells; test: ERK phosphorylation (Western) in WT CHO cells; type: cell-based; settings: for rimonabant sensitivity of ERK activation in WT CHO cells: 500 μM terpene after 10 μM rimonabant, Fig. 7C; for ERK phosphorylation in WT CHO cells: 500 μM terpene or 10 μM WIN55,212-2, 5 min, Fig. 7B
Experimental: WT-CHO cells were obtained from ATCC (#CCL-61). CHO cells stably expressing the human CB1 receptor were obtained from PerkinElmer (#ES-110-C) and utilized for western blots (CB1-CHO-C2) or binding assays (CB1-CHO-C3). HitHunter (CB1-CHO-cAMP) and PathHunter (CB-CHO-βarr2) assays were performed on respective CB1-CHO lines, and were a kind gift from Dr. Robert Laprairie[44]. CHO cells stably expressing cloned CB2 (CB2-CHO) were produced by electroporation with the human CB2 N-3xHA tag cDNA (GeneCopoeia). A stable expressing population was selected for with 500 μg/mL G418. CHO cells stably expressing the human mu opioid receptor were obtained from PerkinElmer (#ES-542-C). All cells were grown on 10 cm dishes in DMEM/F-12 50/50 mix w/ L-glutamine and 15 mM HEPES (Corning) containing 10% heat-inactivated fetal bovine serum, 100 units/mL penicillin, 100 units/mL streptomycin, and 400 μg/mL G418 (CB1-CHO-C2, CB1-CHO-C3, CB2-CHO, MOR-CHO); 800 μg/mL G418 (CB1-CHO-cAMP); 800 μg/mL G418 and 300 μg/mL hygromycin B (CB1-CHO-βarr2). WT CHO were grown as stated above without selection antibiotic. Cells were incubated in a humidified incubator at 37 °C with 5% CO2 and were sub-cultured every 2–3 days.
Cells were plated in 6-well plates 24 h prior to the start of the experiments. Cells were serum starved for 1 h then treated for 5 min with compound. In antagonist experiments, cells were pretreated for 5 min before agonist treatment for 5 min. Media was then aspirated, cells were placed on ice, washed with ice-cold PBS once, and lysis buffer (20 mM Tris–HCl, pH 7.4, 150 mM NaCl, 2 mM EDTA, 0.1% SDS, 1% Nonidet P-40, 0.25% deoxycholate, 1 mM sodium orthovanadate, 1 mM PMSF, 1 mM sodium fluoride, and a protease inhibitor cocktail (EMD Millipore)), was added. Cells were scraped and collected. Lysates were vortexed then centrifuged at 13 k rpm at 4 °C for 10 min. Lysates were then processed for Western blots or stored at − 80 °C.
Cell lysate protein was quantified with a modified BCA protein assay using manufacturers protocol (Bio-Rad). Samples (20–30 μg) were ran on precast gels (10% Bis–Tris, Bolt brand, from ThermoFisher). Gels were wet-transferred to nitrocellulose membranes at 30 V for at least 60 min at 4 °C. Blots were blocked with 5% non-fat dry milk in TBS for 30 min, washed 3 × for 5 min with TBS + 0.1% Tween-20 (TBST), and incubated with primary antibody overnight at 4 °C. Primary antibody: pERK and tERK (Cell Signaling) at 1:1000 dilution in 5% BSA in TBST. Blots were then washed 3 × with TBST then incubated with secondary antibodies for 90 min at room temperature. Secondary antibodies: Goat anti-Rabbit 800 W and Goat anti-Mouse 680 diluted at 1:10,000 and 1:20,000 (Licor), respectively, in 5% non-fat milk in TBST. Blots were washed 3X with TBST and 1 × with TBS, then imaged on a Licor Odyssey Fc or Azure Sapphire. Bands were analyzed using Image-J and reported as pERK/tERK normalized to the standard, or simply as pERK/tERK.

[5] = molecular target: T1, human mu opioid receptor (Homo sapiens, UniProt P35372); type: cell-based; settings: 500 μM terpene or 10 μM morphine, 5 min, Fig. S13A
T1 construct: host or cells: CHO (MOR-CHO)
Experimental: Cells were plated in 6-well plates 24 h prior to the start of the experiments. Cells were serum starved for 1 h then treated for 5 min with compound. In antagonist experiments, cells were pretreated for 5 min before agonist treatment for 5 min. […] Cells were scraped and collected. Lysates were vortexed then centrifuged at 13 k rpm at 4 °C for 10 min. Lysates were then processed for Western blots or stored at − 80 °C.
CHO cells were serum starved for 1 hr, then treated with Vehicle, 10 μM morphine, or 500
μM terpene for 5 min. ERK was quantitated and reported as above. Data expressed as the
vs. Vehicle group by 1 Way ANOVA with Dunnett’s post hoc test. B) MOR-CHO cells
serum starved for 1 hr, then pre-treated with Vehicle or 10 μM naloxone for 10 min, then
treated with Vehicle, 10 μM morphine, or 500 μM terpene for 5 min. ERK quantitated,
reported, and normalized as in A (n=3 independent experiments). *, **** = p < 0.05,
0.0001 vs. terpene-alone group for each set by 1 Way ANOVA with Sidak’s post hoc test
(set up as pairwise comparisons between terpene and terpene + naloxone for each set). For
both, representative blots are shown below each graph.

[6] = molecular target: CB1 (Homo sapiens, UniProt P21554); test: biochemical; type: binding; settings: CB1-CHO membranes, Fig. 8A
[7] = system: male and female CD-1 mice; test: Open field test (hypolocomotion); settings: for mobile time of terpene combined with WIN55,212-2: 200 mg/kg terpene + 5.6 mg/kg WIN55,212-2, Fig. 5; for locomotor activity vs baseline / distance traveled and mobile time, experiment without baseline recording: 200 mg/kg terpene or 5.6 mg/kg WIN55,212-2 i.p.; for locomotor activity vs baseline: compared to baseline values, Fig. S2C,D, confounded by habituation; for distance traveled and mobile time, experiment without baseline recording: vs Vehicle, Fig. S3A,B
Experimental: All experiments were performed on male and female CD-1 (a.k.a. ICR) mice obtained from Charles River in age-matched cohorts of 5–6 weeks of age. […] The animals were maintained in an AAALAC-accredited vivarium at the University of Arizona in temperature and humidity-controlled rooms on a 12-h light/dark cycle. Standard chow and water were available ad libitum. […] Mice were randomized to treatment group by randomization of mice to cages upon arrival, and block random assignment of cages to treatment group. The experimenter was blinded to treatment group by the delivery of coded drug vials. The groups were not decoded until all data had been acquired.
The open field test was used to determine potential hypolocomotive properties induced by terpene and cannabinoid treatment. The open field box was a white box with an open top and black floor. The tracking area was 30 cm × 28 cm. Mice were baselined by placing the mouse in the center of the box and recording from a video camera ~ 1.5 m above for a period of 5 min. Mice were then injected with compound and placed back in the open field box 10–15 min post-injection. In follow-up experiments, mice were not baselined, injected with compound, and placed in the open field box from 10 to 15 min. The total distance traveled and mobile time of mice were analyzed using AnyMaze software.

[8] = system: male and female CD-1 mice; test: Cannabinoid tetrad of behaviors (antinociception, hypolocomotion, catalepsy, hypothermia); type: in vivo; settings: 5.6 mg/kg WIN55,212-2 after 10 mg/kg rimonabant i.p., Fig. S4
Excerpt: Our first set of experiments sought to determine whether selected terpenes/terpenoids (α-Humulene, β-Pinene, Linalool [terpenoid], Geraniol [terpenoid], and β-Caryophyllene as a putative cannabinoid receptor type 2 [CB2] agonist control) had activity in the cannabinoid tetrad of behaviors mediated by the CB1 receptor: antinociception, hypolocomotion, catalepsy, and hypothermia. These terpenes were selected based on their quantities in Cannabis sativa, with α-Humulene, β-Pinene, Linalool, and β-Caryophyllene all being found in higher quantities and Geraniol in lower to underdetermined quantities. Although it is not clear if geraniol is present in higher quantities, we nonetheless chose this ligand due to its reported anti-nociceptive activity (e.g.[22]). Terpenes were administered at several doses (50–200 mg/kg) i.p. and assessed in the tail flick assay in male and female CD-1 mice. […]
Antinociception was tested using the tail flick thermal latency test. Mice were baselined by gently restraining the animal and lowering the distal portion of the tail into a water bath set to 52 °C or 47 °C where stated, and the latency to flick the tail recorded with a stopwatch, with a 10 s cutoff. […] Thermal latency was then assessed over a time course of 2 h, or at a single time-point as noted. […]
Potential induction of catalepsy was assessed using the ring test as described. […]

Chain of CB1 (P21554 whole entry): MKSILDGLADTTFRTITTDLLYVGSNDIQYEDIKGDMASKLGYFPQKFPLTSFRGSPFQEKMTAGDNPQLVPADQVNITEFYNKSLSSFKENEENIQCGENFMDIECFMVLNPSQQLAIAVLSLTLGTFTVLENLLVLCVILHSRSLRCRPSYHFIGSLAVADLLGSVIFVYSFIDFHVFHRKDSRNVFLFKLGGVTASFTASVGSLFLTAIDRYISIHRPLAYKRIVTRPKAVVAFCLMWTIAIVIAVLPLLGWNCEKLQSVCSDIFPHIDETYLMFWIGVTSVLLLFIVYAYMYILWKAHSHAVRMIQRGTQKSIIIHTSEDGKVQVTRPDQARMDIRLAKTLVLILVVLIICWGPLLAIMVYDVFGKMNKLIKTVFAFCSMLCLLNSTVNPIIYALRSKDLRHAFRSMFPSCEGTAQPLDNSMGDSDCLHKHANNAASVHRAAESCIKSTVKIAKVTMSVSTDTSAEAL
T1 sequence (P35372 whole entry): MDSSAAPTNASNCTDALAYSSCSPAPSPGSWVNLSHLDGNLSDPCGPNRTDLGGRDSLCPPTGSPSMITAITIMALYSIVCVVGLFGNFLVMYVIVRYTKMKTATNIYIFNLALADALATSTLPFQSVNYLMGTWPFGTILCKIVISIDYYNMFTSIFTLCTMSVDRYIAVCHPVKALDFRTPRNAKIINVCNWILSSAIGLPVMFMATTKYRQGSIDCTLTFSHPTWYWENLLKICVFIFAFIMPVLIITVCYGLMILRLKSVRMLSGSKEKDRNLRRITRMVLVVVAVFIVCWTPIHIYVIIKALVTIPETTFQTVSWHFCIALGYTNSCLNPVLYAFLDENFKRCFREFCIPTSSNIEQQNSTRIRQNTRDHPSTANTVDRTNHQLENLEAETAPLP

Row | SMILES | effect of rimonabant pretreatment on hypothermia [2] | hypothermia vs baseline [2] | effect of istradefyllene pretreatment on catalepsy response [3] | effect of rimonabant pretreatment on catalepsy response [3] | catalepsy of terpene combined with WIN55,212-2 [3] | catalepsy vs baseline [3] | rimonabant sensitivity of ERK activation in WT CHO cells [4] | ERK phosphorylation in WT CHO cells [4] | ERK stimulation in MOR-CHO cells [5] | competition for the orthosteric binding site against CP55,940 [6] | mobile time of terpene combined with WIN55,212-2 [7] | locomotor activity vs baseline [7] | distance traveled and mobile time, experiment without baseline recording [7] | tail flick antinociception (efficacy in words) ([1]; Fig. S1) | also measured
1 | C/C1=C\CC/C(C)=C/CC(C)(C)/C=C/C1 [α-Humulene] | partially reverse | induced significant hypothermia | completely blocked | small but significant reduction | additive effects | significant increases in cataleptic behavior | rimonabant-insensitive | activated ERK | produced ERK stimulation | some competition and semi-biphasic properties | further decrease in mobile time | significant reductions in locomotor activity | did not result in significant reductions |  | efficacy in the tail flick assay ([1]; terpene 50–200 mg/kg i.p., dose-dependent, Fig. S1): 40–50%; effect of istradefyllene pretreatment on hypothermia ([2]; 10 mg/kg istradefyllene, 200 mg/kg terpene, Fig. 3): partially reversed
2 | C=C1CCC2CC1C2(C)C (stereo not drawn) [β-Pinene] |  | induced significant hypothermia | completely blocked | no impact | additive effects | significant increases in cataleptic behavior | rimonabant-insensitive | activated ERK | produced ERK stimulation | little to no competition | further decrease in mobile time | significant reductions in locomotor activity | reductions in distance traveled and mobile time | low efficacy but not in a dose-dependent manner | effect of istradefyllene pretreatment on mobile time ([7]; 10 mg/kg istradefyllene, 200 mg/kg terpene, Fig. 5): significant reversal; effect of istradefyllene pretreatment on distance traveled ([7]; 10 mg/kg istradefyllene, 200 mg/kg terpene, Fig. S7): istradefyllene reversal
3 | Cc1c(C(=O)NN2CCCCC2)nn(-c2ccc(Cl)cc2Cl)c1-c1ccc(Cl)cc1 [Rimonabant, reference compound] |  |  |  |  |  |  |  |  |  |  |  |  |  |  | effect of rimonabant pretreatment on morphine-induced antinociception ([1]; 10 mg/kg rimonabant i.p., 5.6 mg/kg morphine, Fig. S5A,B): no significant effect; effect of rimonabant on baseline thermal latency ([1]; 10 mg/kg rimonabant, water bath 47 °C, 30 min, Fig. S5C): no significant effect
4 | CCn1c(=O)c2c(nc(/C=C/c3ccc(OC)c(OC)c3)n2C)n(CC)c1=O [istradefyllene, Istradefyllene, reference compound] |  |  |  |  |  |  |  |  |  |  |  |  |  |  | effect of istradefyllene alone on temperature ([2]; 10 mg/kg i.p., 30 min, Fig. S6A): small but significant hypothermic; effect of istradefyllene alone on locomotion ([7]; 10 mg/kg i.p., open field after 10 min, Fig. S6B,C): hyperlocomotive effect
5 | C=CC(C)(O)CCC=C(C)C (stereo not shown) [Linalool] |  | induced significant hypothermia | partially blocked | small but significant reduction |  | significant increases in cataleptic behavior |  | did not cause ERK phosphorylation | no response | little to no competition | further decrease in mobile time | significant reductions in locomotor activity | reductions in distance traveled and mobile time | dose-dependent low efficacy | effect of rimonabant pretreatment on tail flick antinociception ([1]; 200 mg/kg terpene i.p. after 10 mg/kg rimonabant, Fig. 2): fully blocked by rimonabant; tail flick, Linalool combined with WIN55,212-2, females ([1]; female mice, 200 mg/kg + 5.6 mg/kg WIN55,212-2, Fig. S8A): a delay in response and no potentiation over Linalool alone; tail flick, Linalool combined with WIN55,212-2, males ([1]; male mice, 200 mg/kg + 5.6 mg/kg WIN55,212-2, Fig. S8A): greater additive effects of combining both that occurred earlier in the time course; hypolocomotion, antagonist reversal, females ([7]; female mice, 200 mg/kg Linalool, Fig. S8B-C): istradefyllene reversal; hypolocomotion, antagonist reversal, males ([7]; male mice, 200 mg/kg Linalool, Fig. S8B-C): rimonabant reversal
6 | Cc1c(C(=O)c2cccc3ccccc23)c2cccc3c2n1[C@H](CN1CCOCC1)CO3 [WIN55,212-2, reference compound] | only partially reversed | induced significant hypothermia |  |  |  | significant increases in cataleptic behavior |  | did not cause ERK phosphorylation |  |  |  | significant reductions in locomotor activity | reductions in distance traveled and mobile time | dose-dependent increases in thermal latency with greater efficacy than any of the tested compounds | effect of rimonabant on tetrad behaviors induced by the agonist [8]: fully or partially reverse
